This is an account of results in patent US11957687B2 (REGENERON PHARMACEUTICALS, INC., priority 2019, dated 2024).

The structures appear in SMILES notation. Where only a bound is given, the exact number is not on record here.

The target in one series is HSD17B13 (Homo sapiens (Human), UniProt Q7Z5P4). Put plainly: HSD17B13 enzymatic inhibition assay (150 nM or 50 nM HSD17B13). As to conditions: 50 nM HSD17B13; read-out: Inhibition of 50 nM of HSD17B13 IC50. Type of series: biochemical.
The next series addresses HSD17B4 (Homo sapiens (Human), UniProt P51659). Put plainly: HSD17B4 enzymatic blocking assay. Type of series: biochemical. As to conditions: 23.46 μM Estradiol, 1500 μM NAD; read-out: Inhibition of HSD17B4 IC50. On the procedure:
To screen compounds of the disclosure for their ability to block HSD17B4 function, an enzymatic blocking assay was performed. For the assay, HSD17B4 activity was measured by detecting NADH formation from oxidation of Estradiol using a NADH Glo luminescence assay (Promega, #Cat. No. G9062). Compounds of the disclosure were evaluated in a dose titration assay where the compounds were titrated at 10-point dose curve using an Echo-555 liquid handling dispenser. HSD17B4 (SEQ ID NO: 4, expressed in mammalian cells) was added at a final concentration of 2.5 ng/μL in a buffer containing 50 mM Tris-HCl, pH 7.5, Pluronic F-127 0.05%, Tween20 0.01%, BSA 0.01%, into a low volume white 384-well assay plate. Compounds were incubated with the enzyme for 15 min at 20° C. The assay reaction was then initiated by addition of 23.46 μM Estradiol substrate (Sigma, catalog #E2758-250MG, CAS: 50-28-2) and 1500 μM NAD co-factor, and the reaction mixture was incubated for 45 min at 20° C. DMSO at a concentration of 0.5% was used as a negative control and a ‘no substrate’ control was used a positive control in the assay. Detection reagent was then added as per manufacturer's instructions, and the plate was subsequently incubated in the dark for 1 hour at room temperature, NADH generated was detected in the luminescence mode on the Envision Perkin Elmer plate reader. The IC50 values were determined using Dotmatics analysis software.

For another series, the target named is HSD17B10 (Homo sapiens (Human), UniProt Q99714). The series can be described thus: HSD17B10 enzymatic blocking assay. As to conditions: 25 μM Estradiol, 500 μM NAD; read-out: Inhibition of HSD17B10 IC50. Type of series: biochemical. How it is done:
To screen compounds of the disclosure for their ability to block HSD17B10 function, an enzymatic blocking assay was performed. For the assay, HSD17B10 activity was measured by detecting NADH formation from oxidation of Estradiol using a NADH Glo luminescence assay (Promega, #Cat. No. G9062). Compounds of the disclosure were evaluated in a dose titration assay where the compounds were titrated at 10-point dose curve using an Echo-555 liquid handling dispenser. HSD17B10 (Seq. ID NO: 5, expressed in mammalian cells) was added at a final concentration of 31.25 ng/well in a buffer containing 0.2M Tris-HCl, pH 7.5, into a low volume white 384-well assay plate. Compounds were incubated with the enzyme for 30 minutes at room temperature. The assay reaction was then initiated by addition of 25 μM Estradiol substrate (Sigma, catalog #E2758-250MG, CAS: 50-28-2) and 500 μM NAD co-factor, and the reaction mixture was incubated for 3 hours at room temperature. DMSO at a concentration of 0.5% was used as a negative control and a ‘no substrate’ control was used a positive control in the assay. Detection reagent was then added as per manufacturer's instructions, and the plate was subsequently incubated in the dark for 1 hour at room temperature, NADH generated was detected in the luminescence mode on the Envision Perkin Elmer plate reader. The IC50 values were determined using Dotmatics analysis software.

The target of another series is HSD17B1 (Homo sapiens (Human), UniProt P14061). The series can be described thus: HSD17B1 enzymatic blocking assay. As to conditions: 25 μM Estradiol, 500 μM NAD; read-out: Inhibition of HSD17B1 IC50. The class given is biochemical. The method, boiled down:
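Activity followed as NADH formed on estradiol oxidation, read by NADH-Glo luminescence after 1 h detection in the dark at room temperature. Compounds preincubated with enzyme 30 min at room temperature; 0.5% DMSO and no-substrate controls. IC50 fitted from luminescence.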

For another series, the target named is HSD17B2 (Homo sapiens (Human), UniProt P37059). The series can be described thus: HSD17B2 enzymatic blocking assay. The class given is biochemical. As to conditions: 1.8 μM Estradiol, 650 μM NAD; read-out: Inhibition of HSD17B2 IC50. The method, boiled down: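 Mammalian-expressed enzyme at 2 ng/μL in 50 mM Tris-HCl pH 7.5 with detergents/BSA, preincubated 15 min at 20° C. with compound (10-point titration). Reaction with 1.8 μM estradiol and 650 μM NAD ran 45 min at 20° C.; NADH measured by NADH-Glo luminescence and IC50 derived.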
Sequence of HSD17B2 (P37059 other isoform, or with tags, fused parts or gaps): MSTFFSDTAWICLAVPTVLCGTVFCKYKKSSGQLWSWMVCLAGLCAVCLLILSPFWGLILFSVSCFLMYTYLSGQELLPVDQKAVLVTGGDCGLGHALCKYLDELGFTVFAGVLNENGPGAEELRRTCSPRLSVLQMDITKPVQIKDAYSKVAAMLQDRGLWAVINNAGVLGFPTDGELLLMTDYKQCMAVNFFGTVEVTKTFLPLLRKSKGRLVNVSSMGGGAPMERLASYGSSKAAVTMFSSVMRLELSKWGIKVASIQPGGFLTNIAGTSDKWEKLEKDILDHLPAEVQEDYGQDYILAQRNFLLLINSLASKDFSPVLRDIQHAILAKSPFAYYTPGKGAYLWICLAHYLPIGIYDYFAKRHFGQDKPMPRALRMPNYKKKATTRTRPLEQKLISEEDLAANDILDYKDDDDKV

The nature of series [1]: Microsome stability assay, mouse liver microsomes. The class given is in vitro ADME. As to conditions: 1 μM compound, 0.5 mg/mL microsomal protein. The method, boiled down: (§1)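 Compound at 1 μM incubated at 37° C with pooled human or mouse liver microsomes (0.5 mg/mL protein) plus NADPH regenerating system, sampled at 0–60 min; a 60-min no-NADPH incubation also included. Single replicate; LC/MS/MS disappearance from analyte/internal standard peak area ratios, without standard curve.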
(In general: Liver microsomes are a subcellular fraction often used to study metabolism.)

A short description of series [2]: Microsome stability assay, human liver microsomes. The class given is in vitro ADME. As to conditions: 1 μM compound, 0.5 mg/mL microsomal protein; for microsomal CLint at 1 h, 1 µM / half-life at 1 h, 1 µM / microsomal CLint at 1 μM / half-life at 1 μM: human, human liver microsomes, pooled, NADPH, 37° C.; for microsomal CLint at 1 h, 1 µM / microsomal CLint at 1 μM: read-out: Microsome Stability Human liver microsomes Cl; for half-life at 1 h, 1 µM / half-life at 1 μM: read-out: Microsome Stability Human liver microsomes T½. The method, boiled down: as §1

Setting [3] is: mouse, mouse liver microsomes, pooled, NADPH, 37° C., read-out: Microsome Stability Mouse liver microsomes Cl.
The mark [4] stands for this setting: mouse, mouse liver microsomes, pooled, NADPH, 37° C., read-out: Microsome Stability Mouse liver microsomes T½.

Sequence of HSD17B10 (Q99714 other isoform, or with tags, fused parts or gaps): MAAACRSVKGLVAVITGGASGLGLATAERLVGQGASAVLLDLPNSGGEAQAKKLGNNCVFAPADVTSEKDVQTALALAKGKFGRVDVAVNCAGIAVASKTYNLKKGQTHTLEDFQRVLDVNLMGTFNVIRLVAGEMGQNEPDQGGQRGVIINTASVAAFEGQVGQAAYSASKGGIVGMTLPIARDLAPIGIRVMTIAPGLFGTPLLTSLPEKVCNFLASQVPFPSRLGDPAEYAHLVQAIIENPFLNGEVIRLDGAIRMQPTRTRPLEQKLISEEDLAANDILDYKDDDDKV
Sequence of HSD17B13 (Q7Z5P4 other isoform, or with tags, fused parts or gaps): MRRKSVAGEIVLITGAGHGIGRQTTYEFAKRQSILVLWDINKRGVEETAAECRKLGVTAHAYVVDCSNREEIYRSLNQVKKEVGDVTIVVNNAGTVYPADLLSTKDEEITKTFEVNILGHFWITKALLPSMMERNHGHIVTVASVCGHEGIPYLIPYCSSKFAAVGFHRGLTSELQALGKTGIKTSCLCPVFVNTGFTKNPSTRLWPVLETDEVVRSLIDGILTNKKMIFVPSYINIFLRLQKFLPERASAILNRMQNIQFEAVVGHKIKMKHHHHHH
Sequence of HSD17B1 (P14061 other isoform, or with tags, fused parts or gaps): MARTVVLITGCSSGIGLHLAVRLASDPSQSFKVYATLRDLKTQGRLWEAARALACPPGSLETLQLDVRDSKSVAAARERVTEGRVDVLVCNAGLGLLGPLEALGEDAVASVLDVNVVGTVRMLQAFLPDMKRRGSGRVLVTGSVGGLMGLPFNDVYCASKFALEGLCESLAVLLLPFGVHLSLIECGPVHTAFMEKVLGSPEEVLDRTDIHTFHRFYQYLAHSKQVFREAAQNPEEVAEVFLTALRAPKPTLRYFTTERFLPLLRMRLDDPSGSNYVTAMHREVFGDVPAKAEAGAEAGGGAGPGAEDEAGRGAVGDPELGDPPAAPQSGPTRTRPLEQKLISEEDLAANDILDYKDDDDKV
Sequence of HSD17B4 (P51659 other isoform, or with tags, fused parts or gaps): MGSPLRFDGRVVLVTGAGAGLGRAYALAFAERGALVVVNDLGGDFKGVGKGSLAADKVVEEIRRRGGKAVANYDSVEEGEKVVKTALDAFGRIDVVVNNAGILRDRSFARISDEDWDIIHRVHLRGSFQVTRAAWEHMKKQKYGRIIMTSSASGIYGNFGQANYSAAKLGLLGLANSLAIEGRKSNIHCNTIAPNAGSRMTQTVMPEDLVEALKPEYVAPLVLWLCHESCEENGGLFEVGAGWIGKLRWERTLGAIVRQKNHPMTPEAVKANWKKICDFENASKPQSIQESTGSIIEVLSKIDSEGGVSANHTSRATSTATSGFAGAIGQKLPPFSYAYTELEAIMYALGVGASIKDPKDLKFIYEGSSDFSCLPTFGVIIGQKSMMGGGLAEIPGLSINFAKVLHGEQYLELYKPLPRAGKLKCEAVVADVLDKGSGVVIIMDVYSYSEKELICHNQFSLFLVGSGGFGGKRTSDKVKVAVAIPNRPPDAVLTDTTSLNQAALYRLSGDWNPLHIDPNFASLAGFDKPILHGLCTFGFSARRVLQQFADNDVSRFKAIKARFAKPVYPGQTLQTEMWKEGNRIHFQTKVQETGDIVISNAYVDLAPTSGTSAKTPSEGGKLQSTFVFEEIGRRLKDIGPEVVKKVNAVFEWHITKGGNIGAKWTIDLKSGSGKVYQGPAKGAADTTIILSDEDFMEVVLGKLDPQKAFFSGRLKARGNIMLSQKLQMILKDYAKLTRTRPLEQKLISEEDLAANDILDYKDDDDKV

In the case of `O=C(NC1c2ccccc2Oc2cc(Cl)ccc21)c1ccc(C(F)(F)F)[nH]c1=O` (stereo not drawn) [Compound 15A, N-(3-chloro-9H-xanthen-9-yl)-2-oxo-6-(trifluoromethyl)-1,2-dihydropyridine-3-carboxamide], the IC50 (usually the midpoint of a concentration-inhibition curve) at HSD17B13 is 160 nM; on HSD17B4, greater than 100 µM; on HSD17B10, greater than 30 µM; on HSD17B1 it was 3.9 µM; on HSD17B2 it was 6.33 µM.
For the compound `Cc1ccc2c(c1)Oc1cccc(C)c1C2NC(=O)c1ccc(C(F)(F)F)[nH]c1=O` (stereo not drawn) [Compound 53, N-(1,6-dimethyl-9H-xanthen-9-yl)-2-oxo-6-(trifluoromethyl)-1,2-dihydropyridine-3-carboxamide], the IC50 is 310 nM on HSD17B13; 47.1 µM on HSD17B4; greater than 30 µM at HSD17B10; 3.69 µM at HSD17B1; 10.7 µM on HSD17B2.
As for `Cc1ccc2c(c1)Oc1ccccc1C2NC(=O)c1ccc(C(F)(F)F)[nH]c1=O` (stereo not drawn) [Compound 55, N-(3-methyl-9H-xanthen-9-yl)-2-oxo-6-(trifluoromethyl)-1,2-dihydropyridine-3-carboxamide], the IC50 was 180 nM on HSD17B13; greater than 100 µM at HSD17B4; greater than 30 µM on HSD17B10; 4.65 µM at HSD17B1; 9.15 µM at HSD17B2.
As for `O=C(NC(c1ccccc1)c1ccc2c(c1)CCCC2)c1ccc(C(F)(F)F)[nH]c1=O` (stereo not drawn) [Compound 80, N-(phenyl(5,6,7,8-tetrahydronaphthalen-2-yl)methyl)-2-oxo-6-(trifluoromethyl)-1,2-dihydropyridine-3-carboxamide], the 50% inhibitory concentration (IC50) on HSD17B13 was 360 nM; at HSD17B4 it was 48.7 µM; at HSD17B10 it was greater than 30 µM; on HSD17B1, 3.65 µM; on HSD17B2, 8.91 µM.
In the same order, the values of `O=C(NC(c1ccccc1)c1ccc(-c2cccnc2)cc1)c1ccc(C(F)(F)F)[nH]c1=O` (stereo not drawn) [Compound 93, N-(phenyl(4-(pyridin-3-yl)phenyl)methyl)-2-oxo-6-(trifluoromethyl)-1,2-dihydropyridine-3-carboxamide] are 600 nM, 66.2 µM, greater than 30 µM, 15.6 µM and 10.7 µM.
For `O=C(NC(c1ccccc1)c1ccc2c(c1)COC2)c1ccc(C(F)(F)F)[nH]c1=O` (stereo not drawn) [Compound 94, N-((1,3-dihydroisobenzofuran-5-yl)(phenyl)methyl)-2-oxo-6-(trifluoromethyl)-1,2-dihydropyridine-3-carboxamide], the IC50 is 96.6 µM at HSD17B4, greater than 30 µM at HSD17B10, 11.3 µM at HSD17B1 and 18.8 µM on HSD17B2.
With `Cc1ccc(C(NC(=O)c2cc(C)c(C(F)(F)F)[nH]c2=O)c2ccc(C)cc2)cc1` [Compound 115, N-(di-p-tolylmethyl)-5-methyl-2-oxo-6-(trifluoromethyl)-1,2-dihydropyridine-3-carboxamide], the IC50 on HSD17B13 is 450 nM; on HSD17B4, greater than 100 µM; at HSD17B10, greater than 30 µM; at HSD17B1 it was 11.2 µM; at HSD17B2, 11 µM.
Regarding `CCc1ccc2c(c1)Oc1ccccc1C2NC(=O)c1ccc(C(F)(F)F)[nH]c1=O` (stereo not drawn) [Compound 140, N-(3-ethyl-9H-xanthen-9-yl)-2-oxo-6-(trifluoromethyl)-1,2-dihydropyridine-3-carboxamide], the IC50 is 200 nM on HSD17B13; 54.2 µM at HSD17B4; greater than 30 µM at HSD17B10; 3.53 µM at HSD17B1; 10.7 µM at HSD17B2.
On to `CCC1Cc2cc(C)ccc2C(NC(=O)c2ccc(C(F)(F)F)[nH]c2=O)C1` (stereo not drawn) [Compound 388, N-(3-ethyl-6-methyl-1,2,3,4-tetrahydronaphthalen-1-yl)-2-oxo-6-(trifluoromethyl)-1,2-dihydropyridine-3-carboxamide], for which the figures for the IC50 at HSD17B13, at HSD17B1 and on HSD17B2 were 50 nM, greater than 30 µM and 25.8 µM, respectively. The “Microsome Stability Mouse liver microsomes % Remaining @60 min” value in series [1] is reported as 24.60%. Moreover, the results for the microsomal CLint at 1 h, 1 µM in series [1] (setting [3]) and in series [2] were 47.4 µL/min/mg and 150 µL/min/mg, respectively. Moreover, the half-life at 1 h, 1 µM in series [1] (setting [4]) is 29.2 min; in series [2] it was 9.26 min. Also, the “Microsome Stability Human liver microsomes % Remaining @60 min” value in series [2] came out at 10%.
As for `Cc1ccc2c(c1)OCCC2NC(=O)c1ccc(C(F)(F)F)[nH]c1=O` (stereo not drawn) [Compound 441, N-(7-methylchroman-4-yl)-2-oxo-6-(trifluoromethyl)-1,2-dihydropyridine-3-carboxamide], the IC50 at HSD17B13 was 2190 nM. Besides, in series [1], the “Microsome Stability Mouse liver microsomes % Remaining @60 min” value is 74%. In series [1] (setting [3]), the microsomal CLint at 1 h, 1 µM came to 10.2 µL/min/mg. The half-life at 1 h, 1 µM in series [1] (setting [4]) was found to be 135 min. Further, in series [2], the “Microsome Stability Human liver microsomes % Remaining @60 min” value was found to be 45%, the microsomal CLint at 1 μM was found to be 26.4 µL/min/mg and the half-life at 1 μM was 52.5 min. Also, the IC50 at HSD17B1 is greater than 30 µM. Further, the IC50 at HSD17B2 stood at 11.2 µM.
Take `Cc1cccc(C(NC(=O)c2ccc(C(F)(F)F)[nH]c2=O)c2ccccc2)c1` (stereo not drawn) [Compound 490, 2-oxo-N-(phenyl(m-tolyl)methyl)-6-(trifluoromethyl)-1,2-dihydropyridine-3-carboxamide]: the figures for the IC50 on HSD17B13, on HSD17B1 and on HSD17B2 were 590 nM, greater than 30 µM and 16.1 µM, respectively. Also, the “Microsome Stability Mouse liver microsomes % Remaining @60 min” value in series [1] came to 1.60%. For the same compound, the microsomal CLint at 1 h, 1 µM in series [1] (setting [3]) was determined as 140 µL/min/mg; in series [2] it was 203 µL/min/mg. The values for the half-life at 1 h, 1 µM in series [1] (setting [4]) and in series [2] were 9.87 min and 6.83 min, respectively. In addition, the “Microsome Stability Human liver microsomes % Remaining @60 min” value in series [2] amounted to 1%.
`Nc1cccc2c1CCCC2NC(=O)c1ccc(C(F)(F)F)[nH]c1=O` (stereo not drawn) [Compound 533, N-(5-amino-1,2,3,4-tetrahydronaphthalen-1-yl)-2-oxo-6-(trifluoromethyl)-1,2-dihydropyridine-3-carboxamide]: the values for the IC50 on HSD17B13, on HSD17B1 and on HSD17B2 were 680 nM, greater than 30 µM and 72.7 µM, respectively. In series [1], the “Microsome Stability Mouse liver microsomes % Remaining @60 min” value is 90.20%. Besides, the microsomal CLint at 1 μM in series [1] (setting [3]) and in series [2] was less than 9.6 µL/min/mg each time. Moreover, the half-life at 1 μM in series [1] (setting [4]) and in series [2] was greater than 145 min in each case. In addition, the “Microsome Stability Human liver microsomes % Remaining @60 min” value in series [2] is on record as 88.90%.
